Like-named read-outs stand apart in the source and are kept apart here. Marks after values point to notes of the source that are not given here.
Experiments:
human OT receptors = target: T1, human OT receptors (Homo sapiens, UniProt P30559); format: cell-based
T1 construct: expressed in transfected cells; host or cells: HEK-293 cells (stably transformed, G418 selection)
T1 sequence (P30559 1-389): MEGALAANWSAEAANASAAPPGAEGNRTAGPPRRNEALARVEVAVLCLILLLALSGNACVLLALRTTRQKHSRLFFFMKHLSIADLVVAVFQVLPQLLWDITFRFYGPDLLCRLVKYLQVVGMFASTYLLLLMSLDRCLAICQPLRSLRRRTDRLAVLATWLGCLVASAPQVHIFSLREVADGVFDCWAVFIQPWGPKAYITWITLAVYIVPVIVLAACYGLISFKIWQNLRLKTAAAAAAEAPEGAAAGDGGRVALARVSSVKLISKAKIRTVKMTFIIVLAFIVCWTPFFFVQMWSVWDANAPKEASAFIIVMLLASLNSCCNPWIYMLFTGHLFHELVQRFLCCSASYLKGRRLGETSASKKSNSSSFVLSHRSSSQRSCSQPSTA
Protocol: Plasmid constructs were described previously (Amina et al. 2010). Human embryonic kidney HEK‐293 cells were maintained in Dulbecco's Modified Eagle's Medium (DMEM) supplemented with 10% fetal bovine serum (FBS) and Geneticin G418 100 μg/mL at 37°C in a humidified atmosphere of 95% air and 5% CO2. Cells were grown in culture dishes to 80–90% confluence and transfected with the expression plasmid pcDNAHOXTR‐376R or pcDNA3(+) (Invitrogen, Carlsbad, CA) (MOCK‐transfected cells), using FuGENE HD Transfection Reagent (Roche, Basel, Switzerland) in accordance with the manufacturer's instructions.
We measured [Ca^2+]i using the fluorescent Ca^2+ indicator fura‐2‐acetoxymethyl ester (fura‐2/AM). Transfected HEK‐293 cells were loaded with fura‐2/AM to a final concentration of 1 μmol/L in complete medium and incubated at 37°C as reported previously (Ma et al. 2013). After 30‐min loading, the cells were washed three times with HEPES‐buffered saline (HBS) solution (145 mmol/L NaCl, 5 mmol/L KCl, 1 mmol/L MgCl2, 20 mmol/L HEPES‐NaOH, 2 mmol/L CaCl2, 20 mmol/L glucose, pH 7.4). The fluorescence of the cells loaded with fura‐2/AM was then measured at 37°C, at the determined sites, through a pinhole (10–20 μm in diameter). We used alternating excitation wavelengths of 340 and 380 nm in a Ca^2+ microspectrofluorometric system (IX‐73 Model; Olympus, Tokyo, Japan) and Metafluor software (Molecular Devices, Sunnyvale, CA), as described previously (Hashii et al. 2000). […] The ratio of fluorescence at 340 nm and 380 nm (F340/F380) was used to determine [Ca^2+]i. All data were normalized to the baseline fluorescence (F0) recorded 10 s before addition, and given as F/F0 where F – maximal ratio of fluorescence after drug's application.

[1] = male, ICR, mouse, in vivo, ip, 100 ng/kg
Protocol: Thirty minutes or 24 h later, mice were anesthetized by an intraperitoneal injection of pentobarbital. Blood samples of 0.1 mL were collected by cardiac puncture in EDTA and aprotinin‐coated capillaries and centrifuged at 1600g for 15 min at 4°C. Plasma samples were collected and stored at –80°C until use.
(§1) Protein content was determined using a Bio‐Rad protein assay kit and bovine serum albumin assay standard (Bio‐Rad, Hercules, CA).

[2] = male, ICR, mouse, in vivo, ip, 100 ng/kg, 0.5 h
Protocol: Mouse CSF was obtained according the techniques described by Jin et al. (2007). […] Thirty minutes or 24 h later, the mice were anaesthetized with intraperitoneal injection of pentobarbital. The skin over the posterior neck was removed by two incisions, the first in the midline from the low cervical area to the anterior cranium and the second across the craniocervical junction. Subcutaneous tissue and nuchal muscles were exposed, sectioned along the rim of the occipital bone and then removed laterally unveiling the glistening clear arachnoid membrane overlying the cisterna magna. A micropipette was guided into the cisterna magna.
The micropipette was constructed by cutting a 30‐gauge needle with scissors to approximately 6–7 mm. The needle was then inserted 4–5 mm into the lumen of a 10 μL micropipette. CSF samples were obtained between 8.00 and 11.00 AM, and usually 5 μL of clear CSF was obtained.
as §1

[3] = drug responses at 10^−8 mol/L relative to OT as 100%, HEK‐293 cells expressing pcDNAHOXTR‐376R, mean ± SEM, n = 25

SMILES	Percentage of maximum Ca^2+ mobilization (human OT receptors; [3])	Percentage of maximum Ca^2+ mobilization (human OT receptors; 10.0)	plasma level of OT ([1]; 0.5 h) [ng/mL]	plasma level of OT ([1]; 24 h) [ng/mL]	level of OT in the CSF [2] [ng/mL]
CCCCCCCCCCCCCCCC(=O)N[C@H]1CSSC[C@@H](C(=O)N2CCC[C@H]2C(=O)N[C@@H](CC(C)C)C(=O)NCC(N)=O)NC(=O)[C@H](CC(N)=O)NC(=O)[C@H](CCC(N)=O)NC(=O)[C@H]([C@@H](C)CC)NC(=O)[C@H](Cc2ccc(OC(=O)CCCCCCCCCCCCCCC)cc2)NC1=O [LOT‐1, lipo‐oxytocin‐1]	12.6 ± 1.8 ^a ^, ^c %				
CCCCCCCCCCCCCCCC(=O)N[C@H]1CSSC[C@@H](C(=O)N2CCC[C@H]2C(=O)N[C@@H](CC(C)C)C(=O)NCC(N)=O)NC(=O)[C@H](CC(N)=O)NC(=O)[C@H](CCC(N)=O)NC(=O)[C@H]([C@@H](C)CC)NC(=O)[C@H](Cc2ccc(O)cc2)NC1=O [LOT‐2, lipo‐oxytocin‐2]		45.5 ± 0.83 ^a ^, ^b %			
CCCCCCCCCCCCCCCC(=O)Oc1ccc(C[C@@H]2NC(=O)[C@@H](N)CSSC[C@@H](C(=O)N3CCC[C@H]3C(=O)N[C@@H](CC(C)C)C(=O)NCC(N)=O)NC(=O)[C@H](CC(N)=O)NC(=O)[C@H](CCC(N)=O)NC(=O)[C@H]([C@@H](C)CC)NC2=O)cc1 [LOT‐3, lipo‐oxytocin‐3]		13.1 ± 1.8 ^a ^, ^c %			
CC[C@H](C)[C@@H]1NC(=O)[C@H](Cc2ccc(O)cc2)NC(=O)[C@@H](N)CSSC[C@@H](C(=O)N2CCC[C@H]2C(=O)N[C@@H](CC(C)C)C(=O)NCC(N)=O)NC(=O)[C@H](CC(N)=O)NC(=O)[C@H](CCC(N)=O)NC1=O [OT, Oxytocin]	100%		0.695 ± 0.052	0.547 ± 0.039	0.347 ± 0.038
